Data: US20230406865A1, “CRYSTAL FORM OF FREE BASE OF INHIBITOR CONTAINING BICYCLIC RING DERIVATIVE AND PREPARATION METHOD AND APPLICATION OF CRYSTAL FORM” (SHANGHAI HANSOH BIOMEDICAL CO., LTD., priority 2020, published 2023)

Key:
RET kinase = target: T1, RET kinase (Homo sapiens, UniProt P07949); assay: HTRF kinase activity inhibition, RET wild-type; type: biochemical; conditions: ATP at Km
T1 construct: purchased Carna 08-159
Summary of the method: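 HTRF (KinEASE-TK) kinase assay with recombinant RET wild-type, RET V804M, RET V804L and KIF5B-RET enzymes plus ATP.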

RET V804L = target: T2, RET V804L (Homo sapiens, UniProt P07949, V804L); assay: HTRF kinase activity inhibition, RET V804L; type: biochemical; conditions: ATP at Km
T2 construct: purchased Thermofisher PV4397
T2 sequence (P07949 29-1114 V804L): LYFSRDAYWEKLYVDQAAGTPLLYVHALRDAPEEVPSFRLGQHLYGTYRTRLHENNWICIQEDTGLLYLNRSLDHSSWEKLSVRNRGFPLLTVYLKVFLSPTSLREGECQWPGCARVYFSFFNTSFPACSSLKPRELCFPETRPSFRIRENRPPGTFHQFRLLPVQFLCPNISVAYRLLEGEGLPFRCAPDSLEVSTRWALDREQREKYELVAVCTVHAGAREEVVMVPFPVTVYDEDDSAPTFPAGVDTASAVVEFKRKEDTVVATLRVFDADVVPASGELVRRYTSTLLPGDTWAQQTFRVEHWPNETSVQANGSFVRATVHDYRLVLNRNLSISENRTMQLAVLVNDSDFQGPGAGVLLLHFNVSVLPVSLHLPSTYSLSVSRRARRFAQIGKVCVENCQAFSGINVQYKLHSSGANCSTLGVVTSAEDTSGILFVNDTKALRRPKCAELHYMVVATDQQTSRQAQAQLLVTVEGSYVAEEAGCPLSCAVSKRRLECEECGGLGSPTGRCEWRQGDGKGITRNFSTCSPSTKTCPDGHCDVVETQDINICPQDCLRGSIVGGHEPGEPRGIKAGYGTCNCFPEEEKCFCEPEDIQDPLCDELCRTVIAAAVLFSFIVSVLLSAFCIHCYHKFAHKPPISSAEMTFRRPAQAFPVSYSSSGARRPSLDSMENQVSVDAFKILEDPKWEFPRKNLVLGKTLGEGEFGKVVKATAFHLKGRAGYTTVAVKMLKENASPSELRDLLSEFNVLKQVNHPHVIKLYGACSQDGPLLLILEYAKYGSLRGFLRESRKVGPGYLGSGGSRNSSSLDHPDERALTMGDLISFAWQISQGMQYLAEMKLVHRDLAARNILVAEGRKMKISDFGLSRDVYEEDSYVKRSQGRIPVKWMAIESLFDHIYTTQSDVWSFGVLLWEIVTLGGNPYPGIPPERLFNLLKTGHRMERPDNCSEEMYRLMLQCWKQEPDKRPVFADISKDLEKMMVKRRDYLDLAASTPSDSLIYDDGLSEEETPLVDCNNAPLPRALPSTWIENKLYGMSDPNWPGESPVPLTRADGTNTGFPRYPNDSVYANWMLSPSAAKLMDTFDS
Description: (§1) 2.2 Experimental Reagents: • RET enzyme was purchased from Carna Company, and the article number was 08-159; • RET M918T enzyme was purchased from Carna Company, and the article number was 08-508; • KIF5B-RET was purchased from SignalChem Company, the article number was R02-19FG-05; • CCDC6-RET was purchased from SignalChem Company, the article number was R02-19BG-05; • RET V804M enzyme was purchased from Thermofisher Company, and the article number was PV6223; • RET V804L enzyme was purchased from Thermofisher Company, and the article number was PV4397; • HTRF KinEASE-TK kit was purchased from Cisbio Company, and the article number was 62TK0PEC; • ATP was purchased from Thermofisher Company, and the article number was PV3227; • 384-well plate was purchased from PerkinElmer Company, and the article number was 6007290.
(§2) In this experiment, a homogeneous time-resolved fluorescence (HTRF) method was used for the detection of compounds on RET kinase activity.

[1] = system: subcutaneous transplanted tumor of Ba/F3 KIF5B-RET cells; assay: Tumor suppression on Ba/F3 KIF5B-RET transplanted tumor model; type: in vivo, BALB/c nude mice
Method: Ba/F3 KIF5B-RET cells were removed from the cell bank, resuscitated and added to RPMI1640 medium (RPMI1640+10% FBS+1% Glu+1% P/S), then cultured in a CO2 incubator (incubator temperature was 37° C., CO2 concentration was 5%), and when the cell number expanded to the required number for in vivo inoculation, Ba/F3 KIF5B-RET cells were collected. The cells were counted with an automatic cell counter, resuspended with PBS according to the count results, made into a cell suspension (density was 2×10^7/mL), and placed in an ice box for use.
Female BALB/c nude mice aged 6-8 weeks were used, weighing about 18-22 g. Mice were reared in SPF animal room, and were reared in a single cage with 5 mice in each cage. All cages, bedding and water were sterilized at high temperature before use, and all animals were allowed to eat and drink freely. Nude mice were labeled with disposable universal ear tags for mice and rats before the start of the experiment, and the skin of the inoculation site was disinfected with 75% medical alcohol before inoculation. 0.1 mL (containing 2*10^6 cells) of Ba/F3 KIF5B-RET cells were inoculated subcutaneously on the right back of each mouse. Group administration was initiated when the tumor volume reached 60-200 mm^3, with 5 mice in each group. Each test compound was administered orally twice a day for 14 days. The tumor volume and the weight of mice were measured twice a week, and the tumor TGI (%) was calculated.
The tumor volume (mm^3) was calculated as V=0.5*D*d*d, where D and d were the long and short diameters of the tumor, respectively.
When there was no tumor regression, TGI (%)=[(1-(mean tumor volume at the end of the administration in a treatment group−mean tumor volume at the start of administration in the treatment group))/(mean tumor volume at the end of treatment in the solvent control group−mean tumor volume at the start of treatment in the solvent control group)]×100%.
When there was tumor regression, TGI (%)=[1-(mean tumor volume at the end of administration in a treatment group−mean tumor volume at the beginning of administration in the treatment group)/mean tumor volume at the beginning of administration in the treatment group]×100%.

RET V804M = target: T3, RET V804M (Homo sapiens, UniProt P07949, V804M); assay: HTRF kinase activity inhibition, RET V804M; type: biochemical; conditions: ATP at Km
T3 construct: purchased Thermofisher PV6223
T3 sequence (P07949 29-1114 V804M): as the sequence (P07949 29-1114 V804L) above, with L776M counted along it
Description: as §1, §2

[2] = Balb/C mouse pharmacokinetics, oral 5 mg/kg; type: in vivo, Balb/C mice; conditions: male, p.o. 5 mg/kg, plasma; for MRT: read-out: Average residence time MRT; for Cmax: read-out: Blood concentration Cmax; for AUC(0-t): read-out: Curve area AUC0-t; for AUC(0-inf): read-out: Curve area AUC0-∞; for half-life: read-out: Half-life t1/2 (converted); for Tmax: read-out: Peak time tmax
Summary of the method: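 Male Balb/C mice (6 per compound) were fasted overnight and dosed in 0.5% CMC-Na (1% Tween80) solution or suspension. EDTA-K2 plasma was sampled at 0, 0.5, 1, 2, 4, 6, 8 and 24 h. Compound levels were measured by LC/MS/MS after acetonitrile precipitation, and PK parameters were derived from the plasma profiles.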

Ba/F3 KIF5B-RET cells = target: T4, Ba/F3 KIF5B-RET cells (Homo sapiens, UniProt P07949); assay: Inhibition of proliferation of Ba/F3 KIF5B-RET cells (CellTiter-Glo); type: cell-based; conditions: 72 to 144 hours
T4 construct: fused on or other part: P33176 (Kinesin-1 heavy chain)
T4 sequence (P07949 whole entry, change not shown, the tested form may be a part): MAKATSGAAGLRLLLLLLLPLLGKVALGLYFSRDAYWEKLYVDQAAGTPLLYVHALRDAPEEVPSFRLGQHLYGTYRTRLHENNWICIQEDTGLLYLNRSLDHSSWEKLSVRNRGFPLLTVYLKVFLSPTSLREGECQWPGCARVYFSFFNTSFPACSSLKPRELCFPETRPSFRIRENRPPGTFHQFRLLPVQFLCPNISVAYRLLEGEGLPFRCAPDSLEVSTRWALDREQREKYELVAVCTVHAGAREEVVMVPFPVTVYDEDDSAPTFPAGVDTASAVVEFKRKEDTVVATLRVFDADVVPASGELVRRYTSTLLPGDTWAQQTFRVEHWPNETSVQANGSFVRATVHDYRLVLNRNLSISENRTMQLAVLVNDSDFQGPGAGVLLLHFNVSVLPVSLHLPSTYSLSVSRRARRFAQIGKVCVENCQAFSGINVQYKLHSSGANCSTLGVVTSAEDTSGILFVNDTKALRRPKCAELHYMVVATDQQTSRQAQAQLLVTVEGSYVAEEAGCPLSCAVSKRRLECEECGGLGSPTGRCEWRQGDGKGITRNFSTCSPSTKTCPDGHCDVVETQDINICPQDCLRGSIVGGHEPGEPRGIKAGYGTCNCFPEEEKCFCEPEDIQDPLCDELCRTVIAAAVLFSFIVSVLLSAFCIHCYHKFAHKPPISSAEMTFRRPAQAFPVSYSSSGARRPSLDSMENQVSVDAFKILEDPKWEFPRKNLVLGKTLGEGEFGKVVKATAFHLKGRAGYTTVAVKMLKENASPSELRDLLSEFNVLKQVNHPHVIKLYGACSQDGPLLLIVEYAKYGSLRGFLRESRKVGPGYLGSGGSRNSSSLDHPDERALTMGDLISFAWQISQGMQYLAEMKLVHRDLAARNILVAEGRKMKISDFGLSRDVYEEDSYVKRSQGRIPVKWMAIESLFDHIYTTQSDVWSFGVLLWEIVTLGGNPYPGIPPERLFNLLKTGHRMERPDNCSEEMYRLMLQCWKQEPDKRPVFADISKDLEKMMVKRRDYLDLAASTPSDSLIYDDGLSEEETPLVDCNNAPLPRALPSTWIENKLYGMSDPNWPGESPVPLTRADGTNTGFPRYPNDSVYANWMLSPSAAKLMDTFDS
Summary of the method: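 Cells plated overnight, then exposed to compound dilutions in DMSO/medium at 37° C, 5% CO2 for 72 to 144 hours. Viability read by CellTiter-Glo luminescence; IC50 from inhibition rates fitted by nonlinear regression.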

T1 sequence (P07949 29-1114): as the sequence (P07949 29-1114 V804L) above, with L776V counted along it

| Compound | IC50 (RET kinase) | IC50 (RET V804L) | Tumor volume (Mean ± SD) Day 0 ([1]; 10 mg/kg oral twice a day) | TGI (%) Day 14 ([1]; 10 mg/kg oral twice a day) | Tumor volume (Mean ± SD) Day 14 ([1]; 10 mg/kg oral twice a day) | IC50 (RET V804M) | MRT [2] | Cmax [2] | AUC(0-t) [2] | AUC(0-inf) [2] | half-life [2] | Tmax [2] | IC50 (Ba/F3 KIF5B-RET cells) | Tumor volume (Mean ± SD) Day 0 ([1]; 30 mg/kg oral twice a day) | TGI (%) Day 14 ([1]; 30 mg/kg oral twice a day) | Tumor volume (Mean ± SD) Day 14 ([1]; 30 mg/kg oral twice a day) |
| --- | --- | --- | --- | --- | --- | --- | --- | --- | --- | --- | --- | --- | --- | --- | --- | --- |
| C#C[C@@](C)(O)COc1cc(-c2ccc(N3CC4CC(C3)N4Cc3ccc(OC)nc3)nc2)c2c(C#N)cnn2c1 [Embodiment 63, 6-(((R)-2-hydroxy-2-methylbut-3-yn-1-yl)oxy)-4-(6-(6-((6-methoxypyridin-3-yl)methyl)-3,6-diazabicyclo[3.1.1]heptan-3-yl)pyridin-3-yl)pyrazolo[1,5-a]pyridine-3-carbonitrile] | 0.34 nM | 0.24 nM | 126.13 ± 17.24 mm^3 | 94.66% | 219.86 ± 64.31 mm^3 | 0.6 nM | 2.9 h | 2940 ng/mL | 11000 ng·h/mL | 11000 ng·h/mL | 1.3 h | 1 h | 11.1 nM | – | – | – |
| COc1ncc(CN2C3CC2CN(c2ccc(-c4cc(C#CC(C)(C)O)cn5ncc(C#N)c45)cn2)C3)cc1F [Embodiment 18, 4-(6-(6-((5-Fluoro-6-methoxypyridin-3-yl)methyl)-3,6-diazabicyclo[3.1.1]heptan-3-yl)pyridin-3-yl)-6-(3-hydroxy-3-methylbut-1-yn-1-yl)pyrazolo[1,5-a]pyridine-3-carbonitrile] | 0.31 nM | 0.74 nM | – | – | – | 1.8 nM | 4.61 h | 2790 ng/mL | 18200 ng·h/mL | 18200 ng·h/mL | 2.9 h | 0.5 h | 22.6 nM | 132.34 ± 19.40 mm^3 | 110.35% | 118.64 ± 84.34 mm^3 |
| C#C[C@](C)(O)COc1cc(-c2ccc(N3CC4CC(C3)N4Cc3ccc(OC)nc3)nc2)c2c(C#N)cnn2c1 [Embodiment 64, 6-(((S)-2-hydroxy-2-methylbut-3-yn-1-yl)oxy)-4-(6-(6-((6-methoxypyridin-3-yl)methyl)-3,6-diazabicyclo[3.1.1]heptan-3-yl)pyridin-3-yl)pyrazolo[1,5-a]pyridine-3-carbonitrile] | 0.38 nM | 0.23 nM | 126.93 ± 16.98 mm^3 | 88.39% | 330.85 ± 147.00 mm^3 | 3 nM | 2.7 h | 3920 ng/mL | 14500 ng·h/mL | 14500 ng·h/mL | 1.2 h | 1 h | 22.6 nM | – | – | – |
| COc1ccc(CN2C3CC2CN(c2ccc(-c4cc(N5CC(C)(C#N)C5)cn5ncc(C#N)c45)cn2)C3)cn1 [Embodiment 77, 6-(3-Cyano-3-methylazetidin-1-yl)-4-(6-(6-((6-methoxypyridin-3-yl)methyl)-3,6-diazabicyclo[3.1.1]heptan-3-yl)pyridin-3-yl)pyrazolo[1,5-a]pyridine-3-carbonitrile] | 0.37 nM | 0.49 nM | 101.59 ± 36.86 mm^3 | 159.80% | 40.84 ± 53.92 mm^3 | 0.6 nM | 6 h | 4680 ng/mL | 51600 ng·h/mL | 51900 ng·h/mL | 3.2 h | 0.5 h | 4.79 nM | – | – | – |
